ChEMBL document CHEMBL1157539, “Thousands of chemical starting points for antimalarial lead identification” (Nature, 2010)

These compounds were tested on Plasmodium falciparum (assay: GSK_TCMDC: Inhibition of Plasmodium falciparum 3D7 in whole erythrocytes, using parasite LDH activity as an index of growth.). Conditions: not given.
Assay type: functional, organism-based

Point of comparison: `Cc1ccc(/C=C/C(=O)NC2CCC(CN3CCC(c4c[nH]c5ccccc45)CC3)CC2)cc1` (configuration not stated), XC50 798 nM. Against it:
- NC1=NC(c2ccccc2)(c2cccc(O)c2)C(=O)N1CCCc1ccccc1 (configuration not stated) — within 1.5-fold, 836 nM

Same assay, conditions: Plasmodium falciparum, 3D7

Point of comparison: `CCOC(=O)c1cc(C(=O)NCCCCN2CCC(c3ccc(CC)cc3OCC)CC2)ccc1-c1ccc(C(F)(F)F)cc1`, XC50 615 nM. Against it:
- Cc1ccc(/C=C/C(=O)NC2CCC(CN3CCC(c4c[nH]c5ccccc45)CC3)CC2)cc1 (configuration not stated) — within 1.5-fold, 920 nM
- CC(CN(C)C)C(=O)Nc1cccc(-c2ccc(-c3nc4cc(F)ccc4[nH]3)cc2)c1 (configuration not stated) — within 1.5-fold, 653 nM
- CC(C)C[C@H](NC(=O)c1cc2ccccc2s1)C(=O)N[C@H]1CCN(Cc2ccc(I)c(OC3CCN(C)C3)c2)C1 (some centres not stated) — within 1.5-fold, 920 nM
- COc1cc([N+](=O)[O-])ccc1NC(=O)Nc1ccc(OC(F)(F)F)cc1 — 1.7-fold higher, 1030 nM
- Cc1ccc(NC(=O)c2ccc(C(=O)NC3CCN(CC4CCCCC4)CC3)cc2)cc1 — within 1.5-fold, 903 nM
- COc1ccc(-c2cccc(NC(=O)c3cccc(C#N)c3)c2)cc1CN1CCCN(C)CC1 — 3.2-fold lower, 190 nM
- CC1(CCc2ccccc2)N=C(N)N=C(N)C1c1ccc(Cl)c(Cl)c1 (configuration not stated) — 1.9-fold lower, 316 nM
- Cc1ccc2[nH]c(-c3cc(-c4ccc(OCc5ccccc5)cc4)cnc3N)nc2c1 — 2.7-fold higher, 1680 nM
- COc1cccc(CN2CCCN(Cc3cccc(NC(=O)c4ccc(-c5ccccc5)cc4)c3)CC2)c1 — 2.5-fold lower, 244 nM
- CCn1cc(C=C2Oc3c(ccc(O)c3CN3CCCCC3)C2=O)c2cc(OC)ccc21 — within 1.5-fold, 521 nM
- N#CC(CC(=O)c1ccc(Cl)cc1)c1cccc(F)c1 (configuration not stated) — within 1.5-fold, 854 nM
- Oc1ccc(CCNc2nc(N/N=C/C=C/c3ccc(Cl)cc3)nc(N3CCNCC3)n2)cc1 — within 1.5-fold, 779 nM
- Cc1cccc2nc(-c3cccc(-c4ccc(NC(=O)CN5CCOCC5)cc4)c3)[nH]c12 — 1.7-fold higher, 1050 nM
- COc1ccc2c(NN=Cc3ccccc3Cl)ccnc2c1 — within 1.5-fold, 622 nM
- CN(CCN(C)CC(O)c1ccc(Cl)c(Cl)c1)CC(O)c1ccc(Cl)c(Cl)c1 (configuration not stated) — 1.8-fold higher, 1100 nM
- Cc1ccc(C)c(-n2c(SCC(=O)Nc3ccc(C(N)=O)cc3)nnc2-c2cccc(Cl)c2)c1 — within 1.5-fold, 845 nM
- N#Cc1ccc(CN2CCC(Oc3ccc(NC(=O)c4ccccc4)cc3Cl)CC2)cc1 — 2-fold higher, 1260 nM
- O=C(Nc1cccnc1)c1cn(-c2ccccc2)nc1-c1cccs1 — within 1.5-fold, 869 nM
- COc1ccc(CNCCCCCCNCc2ccc(OC)c3ccccc23)c2ccccc12 — within 1.5-fold, 581 nM
- CC1CCC2(CC1)N=C(N)N=C(N)N2OCc1ccc(Br)c2ccccc12 (configuration not stated) — 2.8-fold lower, 216 nM
- O=C(Nc1cccc2ccccc12)N1CCc2cc3nccc(N4CCN5CCC[C@H]5C4)c3cc21 — within 1.5-fold, 889 nM
- CN(C)CCN(C)Cc1ccc(-c2ccc(NC(=O)c3ccc(Cl)cc3)cc2)cc1 — 1.5-fold higher, 943 nM
- CCOc1ccc(Br)cc1/C=C/C(=O)Nc1ccc2c(c1)CCCN(C)C2 — 1.7-fold higher, 1050 nM
- COc1ccc(Cl)cc1N1CCN(CCCNC(=O)c2ccc(-c3nc4cnccc4[nH]3)c(Br)c2)CC1 — 1.9-fold higher, 1150 nM
- COc1cccc(C2CCN(CCN3CCC(NC(=O)c4ccc(-c5ccc(C(F)(F)F)cc5)cc4)CC3)CC2)c1 — 3-fold lower, 203 nM
- CN1CCN(c2ncnc3ccc(NC(=O)Nc4ccc(Cl)c(Cl)c4)cc23)CC1 — 2.3-fold lower, 264 nM
- CN(C)CCOc1cc(NC(=O)Nc2ccc(-c3ccncc3)c(Cl)c2)ccc1I — 4.3-fold lower, 143 nM
- CN1CCN(c2ccnc3cc4c(cc23)N(Cc2ccccc2)CC4)CC1 — 1.9-fold higher, 1140 nM
- CC(C)N1CCN(C(=O)c2ccc(CNCCCN3CCN(c4cccc(Cl)c4Cl)CC3)s2)CC1 — within 1.5-fold, 716 nM
- O=C(/C=C/c1ccccc1Cl)Nc1ccc(Br)c(OCCN2CCC(O)(c3ccccc3)CC2)c1 — within 1.5-fold, 483 nM
- CC(C)(C)C1CC(=O)CC2C(=O)N(C3CCCCC3)C(=O)C21 (configuration not stated) — within 1.5-fold, 421 nM
- Cc1nc(C)c(-c2ccc(Oc3ccc(OC(F)(F)F)cc3)cc2)c(OC(=O)c2ccc(CN(C)C)cc2)c1Cl — 4.5-fold lower, 137 nM
- COc1ccc(NC(=O)N2CCN(CCCCCNC(=O)/C=C/c3ccc(C(F)(F)F)cc3)CC2)cc1Cl — within 1.5-fold, 859 nM
- Cc1cccn2c(=O)c3cc(C(=O)NCCc4ccccc4)c(=N)n(CCCOC(C)C)c3nc12 — within 1.5-fold, 481 nM
- c1ccc2c(Nc3ccc(Cc4ccc(Nc5c6ccccc6nc6ccccc56)cc4)cc3)c3ccccc3nc2c1 — 3.8-fold lower, 162 nM
- Cc1[nH]c2ccc(NS(C)(=O)=O)cc2c1C1CCN(CC2CCN(C(=O)/C=C/c3ccc(Cl)c(Cl)c3)CC2)CC1 — within 1.5-fold, 684 nM
- CCOC(=O)c1ccc(NC(=O)Nc2cccc(-c3cccc(-c4nc5cc(F)ccc5[nH]4)c3)c2)cc1 — 6.5-fold lower, 94.7 nM
- CCCC(C)NC(=O)[C@H](Cc1ccccc1)NC(=O)c1ccc(O)c(-c2ccc(OC)cc2)c1 (some centres not stated) — 2-fold higher, 1240 nM
- CCN1CCN(CC(O)CNC(=O)Nc2ccc(Cl)cc2)CC1 (configuration not stated) — 4.1-fold lower, 150 nM
- CC1CCc2sc(-c3nnc(SC(C)C(=O)NC4CC4)o3)cc2C1 (configuration not stated) — 2-fold higher, 1210 nM
- CCOc1c(CNCCCNc2cc(=O)c3ccccc3[nH]2)cc(I)cc1C(C)(C)C — within 1.5-fold, 703 nM
- CC[C@H]1CN2CC[C@H]1C[C@H]2[C@H](O)c1cc(-c2ccc(C)cc2)nc2ccc(OC)cc12 — 5.6-fold lower, 109 nM
- O=S(=O)(NCCN1CCCC1)c1ccc(-c2ccc(CN3Cc4ccccc4C3)cc2)s1 — 1.5-fold higher, 930 nM
- S=C(NCCCCCN1CCC(c2c[nH]c3ccccc23)CC1)Nc1cccc(I)c1 — within 1.5-fold, 845 nM
- N#Cc1cc(C(=O)Nc2ccccc2)c(N)nc1SCC(=O)Nc1ccc(Br)cc1 — 1.8-fold higher, 1100 nM
- CN1CCC(N(C)C(=O)C=Cc2cn(-c3ccccc3)nc2-c2cc3ccccc3o2)CC1 — 2.2-fold higher, 1340 nM
- COc1ccc(C(=O)NC(Nc2ccc([N+](=O)[O-])cc2)C(Cl)(Cl)Cl)cc1 (configuration not stated) — 1.8-fold higher, 1080 nM
- N=C(N)c1ccc(NC(=O)c2cc(Sc3ccc(O)c(C(=O)Nc4ccc(C(=N)N)cc4)c3)ccc2O)cc1 — 5-fold lower, 122 nM
- CCc1ccc(CN2CCC(NC(=O)c3cc(-c4ccc(N(C)C)cc4)cs3)C2)cc1 (configuration not stated) — 2.3-fold higher, 1440 nM
- O=C(NC1CCN(Cc2ccc(F)cc2)CC1)c1ccc(-c2cccc(C(F)(F)F)c2)s1 — 2.2-fold higher, 1360 nM
- Oc1ccc(CCNc2nc(NCc3ccccc3-c3ccccc3)nc(N3CCCNCC3)n2)cc1 — within 1.5-fold, 877 nM
- O=C(N1CCN(c2ccc(C(F)(F)F)cc2[N+](=O)[O-])CC1)C(Cl)(Cl)Cl — within 1.5-fold, 713 nM
- Cc1ccc(NC(=O)c2ccc(-c3cc4cc(Cl)c(Cl)cc4[nH]3)cc2)cc1OCCN1CCCC1 — 1.6-fold higher, 991 nM
- NC1=NC(c2ccccc2)(c2cccc(O)c2)C(=O)N1CCCc1ccccc1 (configuration not stated) — 2-fold higher, 1230 nM
- Cc1[nH]c2ccccc2c1C1CCN(CC2CCC(NC(=O)/C=C/c3ccc(Cl)c(Cl)c3)CC2)CC1 (configuration not stated) — within 1.5-fold, 822 nM
- N=C(Nc1cccc(Cc2ccccc2)n1)Nc1ncccn1 — 1.5-fold higher, 928 nM
- CC[C@H](C)CNC(=O)c1ccc(-c2cccc(CN3CCC(N4CCCC4)CC3)c2)nc1 — within 1.5-fold, 787 nM
- CCCC(C)N(Cc1ccc(C(C)(C)C)cc1)C(=O)c1cccc(C#N)c1 (configuration not stated) — 1.7-fold higher, 1050 nM
- Cc1c(C(=O)Nc2cc(Sc3ccc(F)cc3)cc([N+](=O)[O-])c2)sc2ncn(Cc3cccc(F)c3)c(=O)c12 — within 1.5-fold, 720 nM
- CCOC(=O)c1ccc(N2CCN(CCCNC(=O)/C(=C/C=C/c3cc4cc(Cl)c(Cl)cc4[nH]3)OC)CC2)cc1 — within 1.5-fold, 845 nM
- O=c1cc(NCCCN(Cc2cc3c(Cl)cc(Cl)cc3[nH]2)Cc2cc3c(Cl)cc(Cl)cc3[nH]2)[nH]c2ccccc12 — 5.1-fold lower, 121 nM
- Cc1nc(N)nc(N)c1C#CC1CCCC1 — within 1.5-fold, 768 nM
- Nn1c(=O)oc2ccc(Cl)cc2c1=O — 3.3-fold lower, 187 nM
- CNc1nc(N/N=C/c2cc3c(cc2[N+](=O)[O-])OCO3)nc(Nc2cccc(C(F)(F)F)c2)n1 — within 1.5-fold, 771 nM
- COc1cccc2cc(C(=O)N[C@@H](CC(C)C)C(=O)N[C@H](/C=N/N3C(=O)CN(Cc4ccccc4)C3=O)CCc3ccccc3)oc12 — within 1.5-fold, 618 nM
- Cc1ccc(-c2ccc3c(c2)C=C(C(=O)NC2CCN(CCNC(=O)c4cccs4)CC2)CCC3)cc1 — 2.7-fold lower, 227 nM
- Cc1cccc2nc(-c3ccc(-c4cccc(CN5CCCCC5)c4)s3)[nH]c12 — within 1.5-fold, 468 nM
- NS(=O)(=O)c1cccc(N/C=C2\C(=O)Nc3ccc(S(=O)(=O)Cc4c(Cl)cccc4Cl)cc32)c1 — within 1.5-fold, 720 nM
- COc1cc(CNC[C@@H](O)[C@H](Cc2ccccc2)NC(=O)c2cc(C3CCCC3)cc(N3CCCCS3(=O)=O)c2)cc(OC)c1 — within 1.5-fold, 704 nM
- CC(Nc1cc(-c2ccccn2)nc(-c2ccccn2)n1)c1ccccc1 (configuration not stated) — within 1.5-fold, 453 nM
- O=C(Cc1c[nH]cn1)Nc1cccc(-c2ccc(-c3nc4ccccc4[nH]3)cc2)c1 — within 1.5-fold, 761 nM
- COc1cccc(-c2cc(C(F)(F)F)n3ncc(C(=O)Nc4cc(Cl)ccc4O)c3n2)c1 — 3-fold lower, 203 nM
- Cc1cc(N)ncc1-c1ccc(NC(=O)Nc2cc(C(F)(F)F)ccc2F)cc1 — within 1.5-fold, 698 nM
- FC(F)(F)c1cc(C(F)(F)F)c2cc(CNCCCNc3nc4ccccc4[nH]3)[nH]c2c1 — 4.4-fold lower, 141 nM
- CC(C)(C(=O)NCCC1CCN(CCCCCNC(=O)/C=C/c2ccc(Cl)c(Cl)c2)CC1)c1ccc(Cl)cc1 — 2.1-fold higher, 1280 nM
- CC(C)c1ccc(Nc2nc(NCCc3c[nH]cn3)nc(NCc3ccccc3)n2)cc1 — within 1.5-fold, 687 nM
- CC(C)NCc1ccc(-c2ccc(NS(=O)(=O)c3cccc4cccnc34)cc2)cc1 — within 1.5-fold, 807 nM
- CC(C(=O)Nc1ccc(Br)cc1Br)N1CCN(C(=O)c2ccco2)CC1 (configuration not stated) — within 1.5-fold, 750 nM
- CN(C)CCCNc1ncnc2c1[nH]c1ccc(Br)cc12 — 1.9-fold lower, 319 nM
- CC(C)CC1(C(=O)OC(C)(C)C)CC(C(=O)OC(C)(C)C)C(c2cccs2)N1C(=O)c1ccc(C(C)(C)C)cc1 (configuration not stated) — 4.5-fold lower, 137 nM
- CCn1cc2c3c(cc(C(=O)N[C@@H](Cc4ccccc4)[C@H](O)CNCc4cccc(OC)c4)cc31)N(C)S(=O)(=O)CC2 — within 1.5-fold, 667 nM
- O=[N+]([O-])c1ccccc1/C=N/Nc1ccnc2cc(Cl)ccc12 — within 1.5-fold, 876 nM
- Cc1cccc(NC(=O)c2ccc(C(=O)NC3CCN(CC4CCCCC4)C3)cc2)c1 (configuration not stated) — 1.5-fold higher, 923 nM
- Cn1cnc2c(Nc3ccncc3)nc(-c3ccc4c(c3)OCO4)nc21 — 1.8-fold higher, 1110 nM
- CC(C)CCN1CCC(Oc2ccc(NC(=O)c3ccc(F)cc3)cc2Cl)CC1 — within 1.5-fold, 725 nM
- Cc1cccc2nc(-c3cccc(-c4ccc(CNCc5cnn(-c6ccccc6)n5)cc4)c3)[nH]c12 — within 1.5-fold, 921 nM
- Cc1ccccc1C1CCN(C2CCC(NC(=O)/C=C/c3ccccc3C(F)(F)F)CC2)CC1 (configuration not stated) — 2.3-fold higher, 1410 nM
- O=C(NC1CC1)C1CCN(Cc2cc3ccccc3n2Cc2ccc(Cl)cc2)CC1 — within 1.5-fold, 489 nM
- Cc1sc(N2CCN(C)CC2)nc1C(=O)Nc1ccc(F)cc1C(F)(F)F — 1.7-fold higher, 1070 nM
- Nc1nc(N)c2c(Oc3ccc(Cl)c(Cl)c3)cccc2n1 — within 1.5-fold, 871 nM
- Cc1noc(C)c1-c1cccc(CNCc2cccc(-c3cccc(-c4nc5ccccc5[nH]4)c3)c2)c1 — 1.6-fold lower, 377 nM
- CC(=O)Oc1cc(C)ccc1C1CCN(CCCCNC(=O)c2ccc(NC(=O)c3ccc(Cl)cc3)cc2)CC1 — within 1.5-fold, 721 nM
- O=c1ccc2ccc(O)c(O)c2o1 [DAPHNETIN] — 19-fold lower, 32.2 nM
- CCCCCCNC(=N)c1ccc2[nH]c(-c3ccc(O)cc3)nc2c1 — 3.2-fold lower, 190 nM
